Experimental data reported in ChEMBL document CHEMBL1201862, “PubChem BioAssay data set” (2004).
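96-well plates; 48 h exposure; 5 concentrations. Endpoints by linear interpolation between flanking doses. Not reached: highest tested concentration assigned. Abbreviation: GI50, concentration required for 50% inhibition of growth.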 Active and inactive are the calls of the source. Rule as the data show it: active = GI50 up to about 1.1 µM and inactive = higher.

Experiments:
Assay in all cases: DTP human tumour cell line panel, 48 h
UACC-62 = system: UACC-62
SNB-78 = system: SNB-78
SK-MEL-2 = system: SK-MEL-2
UO-31 = system: UO-31
NCI-H522 = system: NCI-H522
COLO 205 = system: COLO 205
KM-20L2 = system: KM-20L2
SK-OV-3 = system: SK-OV-3
DMS-114 = system: DMS-114
LXFL 529 = system: LXFL 529
SN12C = system: SN12C
DMS-273 = system: DMS-273
TK-10 = system: TK-10
SF-539 = system: SF-539
HOP-92 = system: HOP-92
HCT-15 = system: HCT-15
K562 = system: K562
OVCAR-8 = system: OVCAR-8
M19-MEL = system: M19-MEL
CAKI-1 = system: CAKI-1
RPMI-8226 = system: RPMI-8226
Malme-3M = system: Malme-3M
SNB-75 = system: SNB-75
LOX IMVI = system: LOX IMVI
MOLT-4 = system: MOLT-4
M14 = system: M14
SF-295 = system: SF-295
RXF 631 = system: RXF 631
SNB-19 = system: SNB-19
A498 = system: A498
CCRF-CEM = system: CCRF-CEM
NCI-H23 = system: NCI-H23
XF498 = system: XF498
OVCAR-3 = system: OVCAR-3
U-251 = system: U-251
NCI-H226 = system: NCI-H226
SK-MEL-28 = system: SK-MEL-28
HL-60 = system: HL-60
HT-29 = system: HT-29
ACHN = system: ACHN
EKVX = system: EKVX
SK-MEL-5 = system: SK-MEL-5
SF-268 = system: SF-268
HOP-18 = system: HOP-18
SW-620 = system: SW-620
NCI-H460 = system: NCI-H460
IGROV-1 = system: IGROV-1
SR = system: SR
Hs-578T = system: Hs-578T
T47D = system: T47D
HOP-62 = system: HOP-62
MCF7 = system: MCF7
KM12 = system: KM12
UACC-257 = system: UACC-257
OVCAR-5 = system: OVCAR-5
MDA-MB-231 = system: MDA-MB-231
HCT-116 = system: HCT-116
MDA-N = system: MDA-N
PC-3 = system: PC-3
A549 = system: A549
MDA-MB-435 = system: MDA-MB-435
DU-145 = system: DU-145
RXF 393 = system: RXF 393
NCI/ADR-RES = system: NCI/ADR-RES
786-0 = system: 786-0

## Clc1ccc(C2SCc3nc4ccccc4n32)cc1 (configuration not stated)
UACC-62
  GI50: 13.8 µM (inactive)
SNB-78
  GI50: 29.9 µM (inactive)
SK-MEL-2
  GI50: 16 µM (inactive)
UO-31
  GI50: 13.5 µM (inactive)
NCI-H522
  GI50: 14.4 µM (inactive)
COLO 205
  GI50: 16.5 µM (inactive)
KM-20L2
  GI50: 28.2 µM (inactive)
SK-OV-3
  GI50: 25.4 µM (inactive)
DMS-114
  GI50: 5.57 µM (inactive)
LXFL 529
  GI50: 18.7 µM (inactive)
SN12C
  GI50: 17.1 µM (inactive)
DMS-273
  GI50: 15.4 µM (inactive)
TK-10
  GI50: 30.1 µM (inactive)
SF-539
  GI50: 22.6 µM (inactive)
HOP-92
  GI50: 2.54 µM (inactive)
HCT-15
  GI50: 27.4 µM
K562
  GI50: 15.2 µM (inactive)
OVCAR-8
  GI50: 29.1 µM (inactive)
M19-MEL
  GI50: 19.9 µM (inactive)
CAKI-1
  GI50: 16.8 µM (inactive)
RPMI-8226
  GI50: 14.9 µM (inactive)
Malme-3M
  GI50: 11.1 µM (inactive)
SNB-75
  GI50: 4.88 µM (inactive)
LOX IMVI
  GI50: 14.9 µM (inactive)
MOLT-4
  GI50: 18 µM (inactive)
M14
  GI50: 18.5 µM (inactive)
SF-295
  GI50: 26.2 µM (inactive)
RXF 631
  GI50: 29.2 µM (inactive)
SNB-19
  GI50: 14.8 µM (inactive)
A498
  GI50: 20.9 µM (inactive)
CCRF-CEM
  GI50: 23.2 µM (inactive)
NCI-H23
  GI50: 10.9 µM (inactive)
XF498
  GI50: 8.2 µM (inactive)
OVCAR-3
  GI50: 24.8 µM (inactive)
U-251
  GI50: 24 µM (inactive)
NCI-H226
  GI50: 19.4 µM (inactive)
SK-MEL-28
  GI50: 21.2 µM (inactive)
HL-60
  GI50: 5.24 µM (inactive)
HT-29
  GI50: 19.5 µM (inactive)
ACHN
  GI50: 30.1 µM (inactive)
EKVX
  GI50: 34.5 µM (inactive)
SK-MEL-5
  GI50: 10.3 µM (inactive)
SF-268
  GI50: 19 µM (inactive)
HOP-18
  GI50: 23.3 µM (inactive)
SW-620
  GI50: 33.3 µM (inactive)
NCI-H460
  GI50: 28.9 µM (inactive)
IGROV-1
  GI50: 14.5 µM (inactive)

## COc1ccc(/C(Cl)=C(\C=O)c2ccc([N+](=O)[O-])cc2)cc1OC
UACC-62
  GI50: 3.92 µM (inactive)
SNB-78
  GI50: 4.3 µM (inactive)
SK-MEL-2
  GI50: 21 µM (inactive)
UO-31
  GI50: 12.2 µM (inactive)
NCI-H522
  GI50: 4.07 µM (inactive)
COLO 205
  GI50: 14.2 µM (inactive)
KM-20L2
  GI50: 12.2 µM (inactive)
SR
  GI50: 3.03 µM (inactive)
Hs-578T
  GI50: 5.69 µM (inactive)
SK-OV-3
  GI50: 26.7 µM (inactive)
DMS-114
  GI50: 5.78 µM (inactive)
LXFL 529
  GI50: 3.23 µM (inactive)
SN12C
  GI50: 5.73 µM (inactive)
DMS-273
  GI50: 11.8 µM (inactive)
T47D
  GI50: 6.9 µM (inactive)
TK-10
  GI50: 13.4 µM (inactive)
SF-539
  GI50: 12.5 µM (inactive)
HOP-92
  GI50: 7.28 µM (inactive)
HCT-15
  GI50: 5 µM
K562
  GI50: 3.62 µM (inactive)
OVCAR-8
  GI50: 7.64 µM (inactive)
M19-MEL
  GI50: 11 µM (inactive)
CAKI-1
  GI50: 9.08 µM (inactive)
RPMI-8226
  GI50: 2.87 µM (inactive)
Malme-3M
  GI50: 14.6 µM (inactive)
SNB-75
  GI50: 3.62 µM (inactive)
LOX IMVI
  GI50: 2.87 µM (inactive)
HOP-62
  GI50: 22.7 µM (inactive)
MCF7
  GI50: 3.72 µM (inactive)
MOLT-4
  GI50: 3.05 µM (inactive)
KM12
  GI50: 20.4 µM (inactive)
M14
  GI50: 7.28 µM (inactive)
SF-295
  GI50: 13.4 µM (inactive)
UACC-257
  GI50: 11.5 µM (inactive)
RXF 631
  GI50: 12.4 µM (inactive)
OVCAR-5
  GI50: 5.13 µM (inactive)
SNB-19
  GI50: > 46.5 µM (inactive)
A498
  GI50: 20.5 µM (inactive)
CCRF-CEM
  GI50: 2.44 µM (inactive)
NCI-H23
  GI50: 4.26 µM (inactive)
MDA-MB-231
  GI50: 13.8 µM (inactive)
XF498
  GI50: 7.4 µM (inactive)
HCT-116
  GI50: 6.15 µM (inactive)
MDA-N
  GI50: 3.25 µM (inactive)
OVCAR-3
  GI50: 11.5 µM (inactive)
U-251
  GI50: 6.32 µM (inactive)
PC-3
  GI50: 8.71 µM (inactive)
NCI-H226
  GI50: 11.4 µM (inactive)
SK-MEL-28
  GI50: 13.1 µM (inactive)
A549
  GI50: 24.7 µM (inactive)
HL-60
  GI50: 2.7 µM (inactive)
HT-29
  GI50: 14.2 µM (inactive)
ACHN
  GI50: 8.83 µM (inactive)
MDA-MB-435
  GI50: 3.24 µM (inactive)
EKVX
  GI50: > 33.3 µM (inactive)
SK-MEL-5
  GI50: 8.2 µM (inactive)
DU-145
  GI50: 19.2 µM (inactive)
RXF 393
  GI50: 3.76 µM (inactive)
SF-268
  GI50: 6.73 µM (inactive)
NCI/ADR-RES
  GI50: 6.38 µM (inactive)
HOP-18
  GI50: 10.5 µM (inactive)
SW-620
  GI50: 6.12 µM (inactive)
NCI-H460
  GI50: 9.27 µM (inactive)
IGROV-1
  GI50: 17.3 µM (inactive)
786-0
  GI50: 4.29 µM (inactive)
